Source: ChEMBL document CHEMBL1221321, “Synthesis and properties of macrolones characterized by two ether bonds in the linker” (Bioorg Med Chem, 2010)
Values after ≈ are worked out from the molar mass of the structure shown.

Legend:
[1] = test system: Streptococcus pyogenes; assay: Antibacterial activity against constitutive MLS resistance Streptococcus pyogenes 166 GR-Micro by broth microdilution method; format: functional
[2] = test system: Streptococcus pneumoniae; assay: Antibacterial activity against constitutive MLS resistance Streptococcus pneumoniae 58 by broth microdilution method; format: functional
[3] = test system: Streptococcus pyogenes; assay: Antibacterial activity against efflux-mediated macrolide-resistance Streptococcus pyogenes 2 by broth microdilution method; format: functional
[4] = test system: Streptococcus pneumoniae; assay: Antibacterial activity against inducible resistance to macrolide and constitutive resistance to lincosamide Streptococcus pneumoniae 134 GR M by broth microdilution method; format: functional
[5] = test system: Streptococcus pyogenes; assay: Antibacterial activity against inducible resistance to macrolide, licosamide and streptogramin Streptococcus pyogenes 11 by broth microdilution method; format: functional; details: read-out: MIC
[6] = test system: Streptococcus pneumoniae; assay: Antibacterial activity against efflux-mediated macrolide-resistance Streptococcus pneumoniae Ci137 by broth microdilution method; format: functional; details: read-out: MIC
[7] = test system: Staphylococcus aureus; assay: Antibacterial activity against efflux-mediated macrolide-resistance Staphylococcus aureus PK1 by broth microdilution method; format: functional
[8] = test system: Haemophilus influenzae; assay: Antibacterial activity against Haemophilus influenzae ATCC 49247 by broth microdilution method; format: functional
[9] = test system: THP-1; assay: Cytotoxicity against human THP1 cells after 24 hrs by MTS assay; format: cell-based; details: THP-1, 24 h
[10] = test system: Staphylococcus aureus; assay: Antibacterial activity against inducible resistance to macrolide, licosamide, and streptogramin Staphylococcus aureus 90265/97 by broth microdilution method; format: functional
[11] = test system: HepG2; assay: Cytotoxicity against human HepG2 cells after 24 hrs by MTS assay; format: cell-based; details: HepG2, 24 h

CC[C@H]1OC(=O)[C@H](C)[C@@H](O[C@H]2C[C@@](C)(OC)[C@@H](OCCCOCCCc3ccc4c(c3)c(=O)c(C(=O)O)cn4CCN(C)C)[C@H](C)O2)[C@H](C)[C@@H](O[C@@H]2O[C@H](C)C[C@H](N(C)C)[C@H]2O)[C@](C)(O)C[C@@H](C)CN(C)[C@H](C)[C@@H](O)[C@]1(C)O
MIC [1]: 1 µg/mL (≈ 0.903 µM) | MIC [2]: ≤ 0.125 µg/mL | MIC [3]: 0.25 µg/mL (≈ 0.226 µM) | MIC [4]: 0.25 µg/mL (≈ 0.226 µM) | MIC [5]: ≤ 0.125 µg/mL | MIC [6]: ≤ 0.125 µg/mL | MIC [7]: ≤ 0.125 µg/mL | MIC [8]: 4 µg/mL (≈ 3.61 µM) | IC50 [9]: > 50 µM | MIC [10]: ≤ 0.125 µg/mL | IC50 [11]: > 50 µM

CC[C@H]1OC(=O)[C@H](C)[C@@H](O[C@H]2C[C@@](C)(OC)[C@@H](OCCCOCCCc3ccc4c(c3)c(=O)c(C(=O)O)cn4CCOC)[C@H](C)O2)[C@H](C)[C@@H](O[C@@H]2O[C@H](C)C[C@H](N(C)C)[C@H]2O)[C@](C)(O)C[C@@H](C)CN(C)[C@H](C)[C@@H](O)[C@]1(C)O
MIC [1]: ≤ 0.125 µg/mL | MIC [2]: ≤ 0.125 µg/mL | MIC [3]: ≤ 0.125 µg/mL | MIC [4]: ≤ 0.125 µg/mL | MIC [5]: ≤ 0.125 µg/mL | MIC [6]: ≤ 0.125 µg/mL | MIC [7]: ≤ 0.125 µg/mL | MIC [8]: 2 µg/mL (≈ 1.83 µM) | IC50 [9]: > 50 µM | MIC [10]: ≤ 0.125 µg/mL | IC50 [11]: > 50 µM

CC[C@H]1OC(=O)[C@H](C)[C@@H](O[C@H]2C[C@@](C)(OC)[C@@H](OCCCOCCCc3ccc4c(c3)c(=O)c(C(=O)O)cn4CC)[C@H](C)O2)[C@H](C)[C@@H](O[C@@H]2O[C@H](C)C[C@H](N(C)C)[C@H]2O)[C@](C)(O)C[C@@H](C)CN(C)[C@H](C)[C@@H](O)[C@]1(C)O
MIC [1]: ≤ 0.125 µg/mL | MIC [2]: ≤ 0.125 µg/mL | MIC [3]: ≤ 0.125 µg/mL | MIC [4]: ≤ 0.125 µg/mL | MIC [5]: ≤ 0.125 µg/mL | MIC [6]: ≤ 0.125 µg/mL | MIC [7]: ≤ 0.125 µg/mL | MIC [8]: 1 µg/mL (≈ 0.94 µM) | IC50 [9]: > 50 µM | MIC [10]: ≤ 0.125 µg/mL | IC50 [11]: > 50 µM
